Values joined by “and” are separate entries in the source; they are usually repeats but may differ in a detail not shown here. Equal entries are not always repeated.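 The compound was tested at five concentrations on cells cultured in 96-well plates, with a 48-hour exposure period. GI50 = concentration required for 50% inhibition of growth. TGI: concentration producing complete growth inhibition.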
Tests used:
Test in all cases: DTP human tumour cell line panel, 48 h
DU-145 prostate = system: DU-145 prostate
EKVX NSCLC = system: EKVX NSCLC
HOP-92 NSCLC = system: HOP-92 NSCLC
M14 melanoma = system: M14 melanoma
OVCAR-3 ovarian = system: OVCAR-3 ovarian
OVCAR-8 ovarian = system: OVCAR-8 ovarian
SF-539 CNS = system: SF-539 CNS
SK-MEL-2 melanoma = system: SK-MEL-2 melanoma
SN12C renal = system: SN12C renal
U251 CNS = system: U251 CNS

SMILES	GI50 (DU-145 prostate)	TGI (DU-145 prostate)	GI50 (EKVX NSCLC) [µM]	TGI (EKVX NSCLC)	GI50 (HOP-92 NSCLC)	TGI (HOP-92 NSCLC)	GI50 (M14 melanoma)	TGI (M14 melanoma)	GI50 (OVCAR-3 ovarian)	TGI (OVCAR-3 ovarian) [µM]	GI50 (OVCAR-8 ovarian)	TGI (OVCAR-8 ovarian)	GI50 (SF-539 CNS)	TGI (SF-539 CNS)	GI50 (SK-MEL-2 melanoma)	TGI (SK-MEL-2 melanoma) [µM]	GI50 (SN12C renal) [µM]	TGI (SN12C renal)	GI50 (U251 CNS)	TGI (U251 CNS)
COc1cc2c3c(n(CCCN4CCC(N)CC4)c(=O)c2cc1OC)-c1cc2c(cc1C3=O)OCO2	0.14 µM	0.803 µM	1.31	3.87 µM	0.202 µM	1.5 µM	1.34 µM	5.23 µM	0.765 µM	1.9	0.368 µM	1.51 µM	0.254 µM	0.863 µM	3.68 µM	24.2	0.338	1.08 µM	0.307 µM	0.945 µM
Cc1ccc([N+](=O)[O-])c2c(NCCCN(C)C)ccnc12	–	> 100 µM	–	> 100 µM	–	> 100 µM	–	> 100 µM	–	> 93.1	–	> 100 µM	–	> 77 µM	–	> 100	–	> 100 µM	–	> 100 µM
Cc1c(C(=O)NN)nnn1-c1ccnc2c(C(F)(F)F)cccc12	> 100 µM	> 100 µM	> 100	> 100 µM	> 100 µM	> 100 µM	> 100 µM	> 100 µM	> 100 µM	> 100	> 100 µM	> 100 µM	> 100 µM	> 100 µM	> 100 µM	> 100	76.5	> 100 µM	–	–
NCCN1CCN(c2nccc(-c3ccc4ccccc4c3)n2)CC1	1.85 µM	3.42 µM	1.83	4.08 µM	1.61 µM	4.01 µM	1.89 µM	3.54 µM	2.36 µM	5.45	2.25 µM	5.6 µM	1.79 µM	3.28 µM	2.21 µM	4.36	1.71	3.81 µM	1.85 µM	3.52 µM
C=C(C)[C@@H]1CC[C@@]2(C(=O)O)CC[C@]3(C)C(CCC4[C@@]5(C)CCC(OS(=O)(=O)c6ccccc6)C(C)(C)C5CC[C@]43C)C12 (stereo partly specified)	6.5 µM	20.8 µM	2.58	19.3 µM	2.47 µM	16.2 µM	11.2 µM	25.1 µM	3.95 µM	14.9	5.8 µM	88.7 µM	9.93 µM	22.4 µM	4.4 µM	16.3	4.88	30.6 µM	3.62 µM	15.7 µM
O=C(N/N=C/c1ccc(Cl)cc1Cl)c1ccccc1Nc1cccc(C(F)(F)F)c1	4.08 µM	38.7 µM	12.2	80.1 µM	1.5 µM	3.57 µM	5.51 µM	35.3 µM	2.85 µM	8.03	2.47 µM	5.99 µM	3.36 µM	12.8 µM	2.76 µM	10.7	7.66	48.2 µM	3.07 µM	9.64 µM
FC(F)(F)c1ccc2c(Nc3cccc(C4CC(c5ccccc5)=NN4c4ccc(Cl)cc4)c3)ccnc2c1 (stereo unspecified)	3.61 µM	15.4 µM	10.9	59.5 µM	3.21 µM	40.5 µM	3.93 µM	22 µM	2.21 µM	6.02	3.57 µM	19.7 µM	4.78 µM	19.5 µM	15.1 µM	42.9	2.96	14.6 µM	3.24 µM	14.4 µM
COc1cc(-c2cn(C)c(=O)c(C)c2C)cc(OC)c1CN1CC[C@H](N2CCN(c3ccc(N[C@H]4CCC(=O)NC4=O)cc3F)CC2)C(F)(F)C1	27.6 µM	> 100 µM	12.7	34.9 µM	8.81 µM	24.8 µM	12.2 µM	27.7 µM	13.4 µM	27.2	11.2 µM	25.7 µM	14.4 µM	28.6 µM	14.6 µM	29.4	11.6	26.8 µM	13.6 µM	29.6 µM
Clc1ccc(OCc2nnc3n2N=C(c2ccc(Cl)cc2Cl)CS3)c(Cl)c1	33.6 µM	> 100 µM	26.2	74.1 µM	19.6 µM	89.2 µM	22.7 µM	51 µM	21.2 µM	73.1	27.7 µM	66.2 µM	18.7 µM	38.7 µM	25.1 µM	57	14.2	32.3 µM	18.7 µM	46.8 µM
CCn1c(-c2nonc2N)nc2ccc(F)cc21	> 25 µM	> 25 µM	> 22.2	> 25 µM	7.36 µM	> 25 µM	> 25 µM	> 25 µM	> 25 µM	> 25	> 25 µM	> 25 µM	> 25 µM	> 25 µM	> 25 µM	> 25	> 25	> 25 µM	> 25 µM	> 25 µM
O=P(O)(O)C(O)(Cn1ccnc1)P(=O)(O)O	> 72.2 µM	> 100 µM	> 87.9	> 100 µM	> 41.7 µM	> 100 µM	> 53.3 µM	> 100 µM	> 66.1 µM	> 100	> 92.3 µM	> 100 µM	20.3 µM	> 100 µM	> 100 µM	> 100	> 57.7	> 100 µM	> 59.1 µM	> 100 µM
CCCNCc1cc(C)cc2c1nc(N1CCNCC1)n2Cc1cc(C)c(F)c(C)c1	6.15 µM	19.6 µM	9.56	22.6 µM	1.83 µM	6.49 µM	1.86 µM	3.47 µM	3.71 µM	13.5	3.9 µM	13.8 µM	1.79 µM	3.59 µM	14.1 µM	28.1	7.57	21.6 µM	1.84 µM	3.58 µM
CC(=O)[CH-]C(C)=O.CC(=O)[CH-]C(C)=O.N=CC=N.[Sn+2]	2.77 µM	11.2 µM	6.42	19.4 µM	1.74 µM	3.79 µM	2.41 µM	5.7 µM	2.86 µM	9.13	2.11 µM	4.74 µM	3.23 µM	11.8 µM	3.46 µM	11.2	2.9	9.14 µM	5.16 µM	17.1 µM
Oc1c(Br)cc(CN(Cc2cc(Br)c(O)c(Br)c2)C2CCCCC2)cc1Br	–	> 100 µM	–	> 100 µM	–	> 100 µM	–	> 100 µM	–	> 100	–	> 100 µM	–	–	–	> 100	–	> 100 µM	–	> 100 µM
CNc1nc(NC2CCCC2)nc(Sc2ccc(OC)cc2)n1	> 10 µM	> 10 µM	–	–	1.09 µM	9.5 µM	> 10 µM	> 10 µM	> 10 µM	> 10	> 10 µM	> 10 µM	> 10 µM	> 10 µM	> 10 µM	> 10	> 10	> 10 µM	> 10 µM	> 10 µM
CC(=O)O[C@H]1C(=O)[C@@]2(C)[C@H]([C@H](OC(=O)c3ccccc3)[C@]3([O-])C[C@H](OC(=O)[C@H]([O-])[C@@H](NC(=O)c4ccccc4)c4ccccc4)C(C)=C1C3(C)C)[C@]1(OC(C)=O)CO[C@@H]1C[C@@H]2[O-].[Fe+3]	0.068 µM and 0.0595 µM	0.272 µM and 0.595 µM	–	65 µM and > 100 µM	> 65 µM and 10.5 µM	> 65 µM and 35.7 µM	0.11 µM and 0.0637 µM	0.491 µM and 0.391 µM	0.0215 µM and 0.0434 µM	–	0.0971 µM and 0.0721 µM	15.5 µM and 27.3 µM	0.029 µM and 0.0519 µM	0.549 µM and 0.486 µM	0.11 µM and 0.161 µM	–	–	65 µM and > 100 µM	0.0357 µM and 0.0647 µM	7.38 µM and 17.2 µM
C=CC(=O)Nc1cccc(Nc2nc(Nc3ccc(OCCOC)cc3)ncc2F)c1	1.55 µM	13.7 µM	3.16	15.6 µM	0.928 µM	5.34 µM	1.12 µM	12.7 µM	2.47 µM	16.1	3.19 µM	45.1 µM	1.47 µM	4.95 µM	1.9 µM	8.65	1.77	31.4 µM	1.89 µM	16 µM
Cc1ccsc1C(=S)Nc1ccc(Cl)c(C(=O)OC(C(C)C)C(C)C)c1	–	> 100 µM	–	> 100 µM	–	61.3 µM	–	> 100 µM	–	33.5	–	> 100 µM	–	> 100 µM	–	25.8	–	> 100 µM	–	97.1 µM
C[C@H]1CCC/C=C/[C@@H]2C[C@H](N)C[C@H]2[C@H](O)/C=C/C(=O)O1	> 100 µM	> 100 µM	> 100	> 100 µM	> 100 µM	> 100 µM	> 100 µM	> 100 µM	> 100 µM	> 100	> 100 µM	> 100 µM	> 100 µM	> 100 µM	> 100 µM	> 100	> 100	> 100 µM	> 100 µM	> 100 µM
Cc1sc(C)c(-c2ccc(CO)o2)c1-c1ccc(CO)o1	> 100 µM	> 100 µM	–	–	7.01 µM	> 100 µM	70.9 µM	> 100 µM	0.183 µM	0.706	75.4 µM	> 100 µM	> 100 µM	> 100 µM	5.03 µM	> 100	96.6	> 100 µM	14.5 µM	> 100 µM
COc1ccc(-c2cc(-c3cc(Cl)ccc3Cl)nc3nc(=S)[nH]c(N)c23)cc1	48.8 µM	> 100 µM	28.5	> 100 µM	11.8 µM	> 100 µM	24 µM	45 µM	45.1 µM	> 100	–	–	27 µM	82.9 µM	81.7 µM	> 100	19.1	65.7 µM	22.1 µM	72.1 µM
CC1=C(C)C(=O)O[C@@H]([C@](C)(O)[C@]2(O)CC[C@@]3(O)[C@@H]4C[C@H]5O[C@]56CC=CC(=O)[C@]6(C)[C@H]4CC[C@]23C)C1	0.519 µM	10.9 µM	–	–	0.0651 µM	1.91 µM	0.101 µM	1.67 µM	0.0667 µM	0.405	0.231 µM	4.86 µM	0.272 µM	1.62 µM	0.0761 µM	0.481	0.411	3.63 µM	0.483 µM	2.23 µM
C=C1CC(COc2cc(Cl)nc(N)n2)C1	47.7 µM	–	25.6	–	23.1 µM	71.5 µM	–	–	28.6 µM	–	43.7 µM	–	–	–	31.4 µM	–	44.1	–	13.5 µM	–
Cn1c(N)nc2c(nc(OCc3ccccc3)n2C2OC(CO)C(O)C2O)c1=O (stereo unspecified)	–	> 100 µM	–	> 100 µM	–	> 100 µM	–	> 100 µM	–	> 100	–	> 100 µM	–	–	–	> 100	–	> 100 µM	–	> 100 µM
CCCS(=O)(=O)c1nc(NC2CC2)cc(-c2ccc3c(ccn3C3CC(C)(C)NC(C)(C)C3)c2)n1	1.71 µM	3.19 µM	1.84	3.71 µM	1.46 µM	3.08 µM	1.74 µM	3.24 µM	1.84 µM	3.42	–	–	–	–	1.88 µM	3.41	1.88	3.8 µM	–	–
COC(=O)c1c(O)ccc2[nH]c(C)c(C#N)c12	> 100 µM	> 100 µM	96.2	> 100 µM	30.3 µM	91.9 µM	25.9 µM	> 100 µM	31.4 µM	> 100	43.2 µM	> 100 µM	–	–	> 100 µM	> 100	49	> 100 µM	44.8 µM	> 100 µM
COc1ccc2c(c1)C=CC(C#N)N2C(=O)c1ccccc1 (stereo unspecified)	< 0.01 µM	> 100 µM	< 0.01	> 100 µM	–	45.9 µM	–	–	< 0.01 µM	–	< 0.01 µM	> 100 µM	< 0.01 µM	0.0238 µM	< 0.01 µM	> 100	< 0.0119	> 100 µM	< 0.01 µM	> 100 µM

— PubChem BioAssay (NCI)
